From PMC6375994, “Macrophage Migration Inhibitory Factor Acts as the Potential Target of a Newly Synthesized Compound, 1-(9′-methyl-3′-carbazole)-3, 4-dihydro-β-carboline” (Scientific Reports, 2019) come the findings set out here.

The structures appear in SMILES notation.

The assay has as its target T1, recombinant human MIF protein (Homo sapiens, UniProt P14174).
T1 construct: commercial recombinant human MIF (PeproTech), amine-coupled to CM7 chip; homotrimer
T1 sequence (P14174 2-115): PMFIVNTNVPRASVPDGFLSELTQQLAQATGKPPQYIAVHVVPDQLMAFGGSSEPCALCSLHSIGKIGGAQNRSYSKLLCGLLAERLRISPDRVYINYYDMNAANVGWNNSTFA
In words: surface plasmon resonance (Biacore T200). The class given is binding.

As to `Cn1c2ccccc2c2cc(C3=NCCc4c3[nH]c3ccccc43)ccc21` [compound 7, 1-(9′-methyl-3′-carbazole)-3,4-dihydro-β-carboline], the Kd amounted to 0.725 µM.

In general, Kd refers to the equilibrium constant for the complex coming apart.
